Results as given in publication PMC5457702 (Molecular cancer therapeutics, 2017).
Read-outs that look alike come from different tables or passages of the source.

Experiments:
HCC-78 cells = experiment: Cell viability; format: cell-based, human; settings: for IC50: read-out: Cell growth inhibition IC50, HCC78
SAOS2 cells = experiment: Cell viability; format: cell-based, human; settings: for IC50: read-out: Cell growth inhibition IC50, SAOS2
UKE-1 cells [1] = experiment: Cell viability; format: cell-based, human; settings: read-out: Cell growth inhibition IC50, UKE-1
MM1.S cells [2] = experiment: Flow cytometry cell cycle analysis, MM1.S; format: cell-based, human; settings: 0.5 μM, 24 h
MM1.S cells [3] = experiment: Cell viability; format: cell-based, human; settings: 72 h, read-out: Cell growth inhibition IC50, MM1.S
[4] = system: c-MYC, p-STAT3, c-PARP levels in MM1.S cells; experiment: Immunoblotting of biomarkers in MM1.S; format: cell-based, human; settings: 6 h drug exposure
UKE-1 cells [5] = experiment: Development of drug resistance in UKE-1 cells; format: cell-based, human; settings: two months, starting at IC20
BRD4 = settings: read-out: IC50(BRD4); cited from earlier work
BRD4-1 [6] = target: T1, BRD4-1 (Homo sapiens, UniProt O60885); experiment: Differential scanning fluorimetry; format: binding; settings: 100 μM inhibitor, 4 μM BRD4-1; mean of 3 experiments in quadruplicate
931 cancer cell lines = experiment: Cancer cell line screening; format: cell-based; settings: 72 h, read-out: mean IC50 across cell line panel
BRD4-1 [7] = target: T1, BRD4-1; experiment: qPCR binding assay, BRD4-1; settings: read-out: BRD4-1 Kd, qPCR; single experiment in duplicate
BRDT-1 = BRDT-1 (Homo sapiens, UniProt Q58F21); experiment: Alpha Screen binding assay, BRDT-1; settings: relative to BRD4

| Compound | IC50 (HCC-78 cells; Homo sapiens, HCC78, 72 h) [nM] | IC50 (SAOS2 cells; Homo sapiens, SAOS-2, 72 h) [nM] | IC50 (UKE-1 cells [1]; Homo sapiens, UKE1, 72 h) [nM] | cell cycle effect / G1 arrest (MM1.S cells [2]) | IC50 (MM1.S cells [3]; Homo sapiens, MM1.S) [nM] | onset of apoptosis, c-PARP levels [4] | development of resistance upon prolonged exposure (UKE-1 cells [5]) | IC50 (HCC-78 cells; 72 h, Cell titer blue) [nM] | IC50 (SAOS2 cells; 72 h, Cell titer blue) [nM] | IC50 (UKE-1 cells [1]; 72 h, Cell titer blue) [nM] | ΔTm, DSF (BRD4-1 [6]) [°C] | IC50 (MM1.S cells [3]; Cell titer blue) [nM] | other results |
| --- | --- | --- | --- | --- | --- | --- | --- | --- | --- | --- | --- | --- | --- |
| CC(C)(C)c1cc(NC(=O)Nc2ccc(-c3cn4c(n3)sc3cc(OCCN5CCOCC5)ccc34)cc2)no1 [Quizartinib] | > 10000 | > 10000 | 9500 | only slightly affected | > 10000 | – | – | – | – | – | – | – | – |
| N#CC[C@H](C1CCCC1)n1cc(-c2ncnc3[nH]ccc23)cn1 [Ruxolitinib] | > 10000 | > 10000 | 170 | only slightly affected | > 10000 | ineffective | readily developed resistance | – | – | – | – | – | – |
| Cc1cnc(Nc2ccc(N3CCN(C)CC3)cc2)nc1Nc1cccc(S(=O)(=O)NC(C)(C)C)c1 [TG101209] | – | – | – | moderate increase of cells in G1 | – | – | readily developed resistance | 1900 | 1500 | 320 | 6.8 | 1400 | IC50 (BRD4): […] |
| Cc1cnc(Nc2ccc(OCCN3CCCC3)cc2)nc1Nc1cccc(S(=O)(=O)NC(C)(C)C)c1 [TG101348] | – | – | – | – | – | – | – | – | – | – | – | – | IC50 (931 cancer cell lines): 10000 nM |
| (+)-JQ1 | – | – | – | – | – | ineffective | – | 2600 | 1500 | 210 | 8.8 | 100 | maximum fraction affected, HCC-78 (HCC-78 cells; 72 h, Hill fit): ~ 0.5; maximum fraction affected, SAOS-2 (SAOS2 cells; 72 h, Hill fit): ~ 0.5; Kd (BRD4-1 [7]): 9.1 nM; fold less active against BRDT-1 (BRDT-1): 7 fold |
